Data from patent publication US6528677B1, “Selective retinoid agonists” (Hoffmann-La Roche Inc., priority 1999, dated 2003).

What was measured:
[1] = system: elastase-induced emphysema in rats; experiment: Repair of alveoli in elastase-induced emphysema (rat model); format: in vivo, male Sprague Dawley rats; conditions: starting 21 days post elastase injury, morphometric analysis of lung sections
Experimental: Effects of RAR Selective Retinoids on Repair of Alveoli in Elastase-induced Emphysema
RAR selective agonists were evaluated for its effects on alveolar repair in the rat model of elastase-induced emphysema in rats (D. Massaro et al. Nature Medicine (1997, 3, 675). Animals were divided into treatment groups of approximately eight. Lung inflammation and alveolar damage was induced in male Sprague Dawley rats by a single installation of pancreatic elastase(porcine derived, Calbiochem) 2 U/gram body mass. Three weeks post injury all-trans retinoic acid or RAR agonist was dissolved in dimethylsulfoxide (20 mg/ml) and stored at −20 C. Fresh working stocks were prepared fresh daily by dilution in PBS to a final concentration of 2 mg/ml. Animals were dosed once daily with the retinoid by intraperitoneal injection or orally, starting 21 days post injury. Control groups were challenged with elastase and 21 days later treated with Vehicle (DMSO/PBS) for 14 days. Animals were sacrificed 24 hours after the last dose of by exsanguination under deep anesthesia.
The lungs were inflated with 10% neutral buffered formalin by intratracheal instillation at a constant rate (1 ml/gram body mass/min). The lung was excised and immersed in fixative for 24 hours prior to processing. Standard methods were used to prepare 5 um paraffin sections. Sections were stained with Hematoxylin and Eosin (H%E). Computerized Morphometric analysis was performed to determine the average alveolar size and alveolar number (Table 1).

With `CC1(C)CCC(C)(C)C2=C1CC(C)(C(=O)Oc1ccc(C(=O)O)cc1)C2` [B, 2,4,4,7,7-pentamethyl-2,3,4,5,6,7-hexahydro-1H-indene-2-carboxylic acid 4-carboxy-phenyl ester] the melting point was 205 to 206 °C.

`CCC1(C(=O)Oc2ccc(C(=O)O)cc2)CC2=C(C1)C(C)(C)CCC2(C)C` [C, 2-ethyl-4,4,7,7-tetramethyl-2,3,4,5,6,7-hexahydro-1H-indene-2-carboxylic acid 4-carboxy-phenyl ester] gave a melting point of 175 to 176 °C.

For `CC1(C)CCC(C)(C)C2=C1CC(Cc1ccccc1)(C(=O)Oc1ccc(C(=O)O)cc1)C2` [E, 2-benzyl-4,4,7,7-tetramethyl-2,3,4,5,6,7-hexahydro-1H-indene-2-carboxylic acid 4-carboxy-phenyl ester], the melting point was 183 to 184 °C.

For `CCCC1(C(=O)Oc2ccc(C(=O)O)cc2)CC2=C(C1)C(C)(C)CCC2(C)C` [Example 3.5, 4,4,7,7-Tetramethyl-2-propyl-2,3,4,5,6,7-hexahydro-1H-indene-2-carboxylic acid 4-carboxy-phenyl ester], the melting point was 156 to 157 °C.

Work on `CCCCC1(C(=O)Oc2ccc(C(=O)O)cc2)CC2=C(C1)C(C)(C)CCC2(C)C` [Example 3.6, 2-Butyl-4,4,7,7-tetramethyl-2,3,4,5,6,7-hexahydro-1H-indene-2-carboxylic acid 4-carboxy-phenyl ester] yielded a melting point of 172 to 173 °C.

Compound `CC(C)CC1(C(=O)Oc2ccc(C(=O)O)cc2)CC2=C(C1)C(C)(C)CCC2(C)C` [Example 3.7, 2-Isobutyl-4,4,7,7-tetramethyl-2,3,4,5,6,7-hexahydro-1H-indene-2-carboxylic acid 4-carboxy-phenyl ester] has a melting point of 194 to 196 °C.

In the case of `CCCCCCC1(C(=O)Oc2ccc(C(=O)O)cc2)CC2=C(C1)C(C)(C)CCC2(C)C` [Example 3.8, 2-Hexyl-4,4,7,7-tetramethyl-2,3,4,5,6,7-hexahydro-1H-indene-2-carboxylic acid 4-carboxy-phenyl ester], the melting point is reported as 149 to 150 °C.

`CC1(C)CCC(C)(C)C2=C1CC(CCc1ccccc1)(C(=O)Oc1ccc(C(=O)O)cc1)C2` [Example 3.9, 4,4,7,7-Tetramethyl-2-phenethyl-2,3,4,5,6,7-hexahydro-1H-indene-2-carboxylic acid 4-carboxy-phenyl ester] gave a melting point of 182 to 183 °C.

In the case of `CCCCCC1(C(=O)Oc2ccc(C(=O)O)cc2)CC2=C(C1)C(C)(C)CCC2(C)C` [compound D, 4,4,7,7-tetramethyl-2-pentyl-2,3,4,5,6,7-hexahydro-1H-indene-2-carboxylic acid 4-carboxy-phenyl ester], the melting point is reported as 156 to 158 °C, the “% repair area” value ([1]; 0.3 mg/kg p.o. once daily) is reported as 11.1% and the “% repair area” value ([1]; 0.5 mg/kg i.p. once daily) is reported as 54%. For the same compound, the “% repair area” value ([1]; 1 mg/kg p.o. once daily) was 44% and the “% repair area” value ([1]; 3 mg/kg p.o. once daily) was 48.6%.
